{
  "source": "patent US7135162B2",
  "about": "“Agent for diagnosing and treating malignant tumors” (Cosmo Research Institute, priority 1997, dated 2006)",
  "test_system": "human ovarian cancer cisplatin-resistant cultured cell A2480CP",
  "assay": "^13C-NMR of excised cancer cells and femoral muscle after intravenous administration to tumour-bearing nude mice",
  "settings": "for ^13C Area integrated value, Cancer cells: 300 mg/kg, caudal vein, peak areas 90 to 160 ppm, relative to 100 = first animal after 8 hours, two animals",
  "text": "Nude mice (female BALB Cnu/nu, about 8 mm in cancer diameter) were used after 3 weeks of the transplantation of 2×10^6 cells/animal of human ovarian cancer cisplatin-resistant cultured cell A2480CP to the right-side body subcutaneously. Preparation of ^13C-labeled 5-aminolevulinic acid aqueous solution:\n5-Aminolevulinic acid hydrochloride in which the 5-position carbon was replaced with ^13C (Production Example 4) was used. The 5-aminolevulinic acid hydrochloride in which the 5-position carbon was replaced with ^13C was dissolved in distilled water at a ratio of 25 g/L, and the solution was neutralized to pH 7 with sodium hydroxide.\nThe thus neutralized solution was sterilized by immediately passing through a 0.22 μm filter and administered from the mouse caudal vein at a ratio of 12 μl per g body weight. This dose corresponds to 300 mg administration of 5-aminolevulinic acid hydrochloride per 1 kg body weight. After 2, 4 and 8 hours of the administration, mice were sacrificed and subjected to bloodletting, and then the cancer cells and femoral part were excised and packed in 10 mmφ NMR sample tubes to the same volume to measure ^13C-NMR by super-conductive NMR, JNM-A400 manufactured by JEOL, at an observation frequency of 100.50 MHz using a proton decoupling method.\nAfter the measurement, peak areas of from 90 to 160 ppm were integrated, and relative values were calculated based on the value 100 of the first animal after 8 hours of the administration. The test was carried out using two animals for each condition.",
  "note": "Several values for one entry are separate records, joined by “and”; a condition that tells them apart may be missing. Equal values may be shown once.",
  "data": [
    {"smiles": "Cl.N[13CH2]C(=O)CCC(=O)O", "note": "[^13C-labeled 5-aminolevulinic acid, 5-Aminolevulinic acid hydrochloride in which the 5-position carbon was replaced with ^13C]", "values": [
      {"measurement": "^13C Area integrated value, Cancer cells", "setting": "2 hours after administration", "result": "19 and 22"},
      {"measurement": "^13C Area integrated value, Cancer cells", "setting": "4 hours after administration", "result": "89 and 73"},
      {"measurement": "^13C Area integrated value, Cancer cells", "setting": "8 hours after administration", "result": "100 and 87"},
      {"measurement": "existing frequency of ^13C, cancer cells versus muscle", "setting": "summary of Table 3, 2, 4 and 8 hours after administration", "result": "higher in the cancer cells than in the muscle"}
    ]}
  ]
}
